{
  "source": "patent US7897340B2",
  "about": "“Use of tumor susceptibilty gene 101 (TSG 101) as a prognostic and diagnostic marker” (The Board of Regents of the University of Texas System, priority 2006, dated 2011)",
  "key": {"[1]": {"test_system": "caspase 3", "experiment": "Caspase activity assay", "format": "cell-based, human", "conditions": "SKOV-3 lysates, 6 days following transfection", "protocol": "SKOV-3 cells transfected with either control or TSG101 siRNA were grown in 10 cm plates to 70-80% confluence, then harvested by trypsinization, washed twice in PBS and once in wash buffer (100 mM HEPES pH 7.4, 0.5 mM EDTA, 1 mM DTT, 0.1 mM PMSF, 2 μg/ml leupeptin, 2 μg/ml pepstatin). The cells were lysed on ice for 30 min with frequent vortexing in 150 μl of lysis buffer (wash buffer plus 1% Triton-X100). Cell debris was removed by centrifugation at 16,000 g for 20 min at 4° C. Lysate protein concentration was determined by Bradford assay (Bio-Rad). Caspase 3 activity was measured using fluorogenic substrates […] that is specific for caspase 3. Release of free AFC was monitored using a Fluoroskan fluorescence microplate reader with excitation and emission set to 405 and 510 nm, correspondingly."}, "[2]": {"test_system": "HIF-1α transcriptional activity", "experiment": "HIF-1α GFP reporter assay (HRE-GFP) in SKOV-3 cells", "format": "cell-based, human", "protocol": "Cells were plated at 1×10^5 in 3.5 cm wells and grown overnight at 37° C. The following day cells were transfected with 375 ng/well of either TSG101 or control siRNA duplex using Lipofectamine 2000. Cells were then passaged at 48 hrs post-transfection and used for subsequent experiments. The HIF-1α response element (HRE)-GFP reporter (a generous gift from Mark Dewhirst) was transfected into cells 48 hrs after transfection with siRNA reagents, and subsequently plated onto microscope cover slips. On the fifth day following siRNA transfection, cells on cover slips were rinsed in PBS and fixed in 2% paraformaldehyde for 15 min. Nuclear staining was carried out with DAPI (5 ng/ml) for 5 min, after which slides were mounted and observed using a fluorescence microscope (Olympus BX51) equipped with a Hamamatsu digital camera (C4742-95).\nTo test the functional consequence of TSG101 knock-down mediated down-regulation of CITED2/HIF-1 ? HIF-1 ? transcriptional activity was examined using a HIF-1-inducible fluorescent reporter. This construct was created by splicing five copies of the hypoxia regulatory element (HRE) upstream of enhanced green fluorescent protein (GFP), which provided a convenient method for monitoring HIF-1 activity levels by following GFP expression using fluorescence microscopy (Moeller et al., 2004)."}, "[3]": {"test_system": "CITED2 mRNA", "experiment": "CITED2 mRNA by RT-PCR in SKOV-3 cells", "format": "cell-based, human", "conditions": "SKOV-3, 3 days following siRNA transfection", "protocol": "(§1) Total RNA was isolated from cells using Trizol reagent (Invitrogen), and concentration was determined by absorbance at 260 nm. Real-Time PCR analysis was carried out using fluorescent TSG101 primers on an Applied Biosystems Prism 7000 Sequence Detection System. RT-PCR was carried out for TSG101 and HIF-1α using 1 μg of isolated total RNA under the following parameters: 94° C. 1 min, 57° C. 1 min and 72° C. 1.5 min, 35 cycles. Primers used for RT-PCR were TSG10 forward 5′-[…]-3′ (SEQ ID NO: 1), reverse 5′-TTTCCTCC TTCATCCGCCATCTC-3′ (SEQ ID NO: 2), CITED2 forward 5′-[…]-3′ (SEQ ID NO: 3), reverse 5′-[…]-3′ (SEQ ID NO: 4), HIF-1a ? forward 5′-[…]-3′ (SEQ ID NO: 5), reverse 5′-[…]-3′ (SEQ ID NO: 6).\n(§2) A siRNA duplex specific for TSG101 (targeting TSG101 coding sequence 413-433) and a scrambled random control siRNA with matching GC content were obtained from Dharmacon. This specific TSG101 siRNA duplex (sense: CCUCCAGUCUUCUCUCGUCdTdT (SEQ ID NO: 7) and antisense: dTd[…] (SEQ ID NO: 8) have been successfully applied to suppress the expression of endogenous TSG101 in several high quality studies (Amit et al., 2004; Garrus et al., 2001; Hewitt et al., 2002; Ismaili et al., 2005). Transfection of the siRNAs was according to the manufacturer's instructions using Lipofectamine 2000 (Invitrogen)."}, "[4]": {"test_system": "p21 promoter", "experiment": "p21 promoter luciferase reporter assay in SKOV-3 cells", "format": "cell-based, human", "description": "To investigate the mechanism by which TSG101 silencing induced the accumulation of p21 mRNA, a plasmid construct, p21P, with a luciferase reporter gene under the transcriptional control of the p21 promoter was co-transfected into the SKOV-3 cells either with TSG101 specific or control siRNA. […] Since SKOV-3 cells are p53-null, this apparent TSG101 silencing-mediated transcriptional activation of p21 was most likely p53-independent.\nTo further confirm this observation, the luciferase reporter activity was monitored using a deletion p21 reporter construct, p21PΔ1.1, which contained a 1.1 kb deletion that removed the consensus p53-responsive element from the 5′ region of the 2.4 kb p21 promoter 27. […] Since TSG101 contained a putative DNA-binding domain and could act as a general transcriptional suppressor 2, it was hypothesized that TSG101, acting as a transcriptional corepressor, suppressed the transactional activation of p21 by binding to the p21 promoter. Consequently, suppression of TSG101 by siRNA led to the transcriptional activation of p21."}, "[5]": {"test_system": "SKOV-3 cells", "experiment": "In vivo tumor formation assay in nude mice", "set-up": "species or system Balb/c athymic nude mice", "conditions": "siRNA-transfected SKOV-3 cells injected s.c. into flanks of nude mice, four mice, vs control siRNA cells", "protocol": "SKOV-3 cells were trypsinized 3 days following transfection with either Control or TSG101 siRNA, and subsequently washed and resuspended in phosphate-buffered saline at 5×10^6 cells/ml. 200 μl (1×10^6 cells) of control or TSG101 transfected SKOV-3 cells were injected s.c. into the right and left flanks (respectively) of 4-6 week old Balb/c athymic nude mice (Jackson Laboratory, Bar Harbor, Me.). Mice were examined every 5 days until visible tumors appeared. Subsequently, tumor volume measurements were taken every 3-5 days, and mice were sacrificed 6 weeks after initial injections, and a final measurement of tumor volume was taken.\nFurther, in vivo tumor formation assay in nude mice was performed to determine if TSG101 knockdown affected the tumorigenicity of SKOV-3 cells. Seventy-two hours post transfection, SKOV-3 cells transfected either with TSG101 or control siRNA duplex were pair-wise injected subcutaneously into the left or right flanks, respectively, of the same BALB/c athymic nude mouse. Tumor growth was monitored for 6 weeks, at which time the tumors were harvested and tumor volume was measured. […] Due to the transient nature of the siRNA duplex, the actual effect of TSG101 gene silencing should be more prominent."}, "[6]": {"test_system": "HIF-1α mRNA", "experiment": "HIF-1α mRNA by RT-PCR in SKOV-3 cells", "format": "cell-based, human", "conditions": "SKOV-3, 3 days following siRNA transfection", "protocol": "as §1, §2"}},
  "note": "Entries after “also recorded” stand apart in the source; their conditions may differ.",
  "data": [
    {"substance": "TSG101 siRNA: siRNA duplex from Dharmacon targeting TSG101 coding sequence 413-433, SEQ ID NO: 7 and 8 (chain 1 CCUCCAGUCUUCUCUCGUCTT; chain 2 TTGGAGGUCAGAAGAGAGCAG; chemistry not fully specified; one strand is listed 3' to 5')", "values": [
      {"measurement": "caspase 3 activity", "setting": "[1]", "value": "apparent increases"},
      {"measurement": "fluorescent signal from GFP expression (HRE-GFP)", "setting": "[2]; SKOV-3, fluorescence microscopy, 4 days post-transfection as printed", "value": "significantly decreased"},
      {"measurement": "GFP protein expression (HRE-GFP)", "setting": "[2]; SKOV-3, immunoblotting", "value": "significantly decreased expression of GFP"},
      {"measurement": "CITED2 mRNA expression", "setting": "[3]", "value": "significantly down-regulated"},
      {"measurement": "induction of p21 (luciferase reporter)", "setting": "[4]; SKOV-3, full-length p21 promoter construct p21P", "value": 6, "unit": "fold"},
      {"measurement": "luciferase activity (p21 promoter reporter)", "setting": "[4]; SKOV-3, p21P construct co-transfected with siRNA, vs control siRNA", "value": "significantly increased; also recorded: potentiates p21 transcription"},
      {"measurement": "induction of p21 (luciferase reporter)", "setting": "[4]; SKOV-3, p53-deletion construct p21PΔ1.1", "value": 6, "unit": "fold"},
      {"measurement": "tumor volume", "setting": "[5]", "value": "significantly smaller; also recorded: reduced tumor growth"},
      {"measurement": "HIF-1α mRNA expression", "setting": "[6]", "value": "significantly down-regulated"}
    ]}
  ]
}
